Data taken from US8338598B2, “Herbicidal pyrido[2,3-B]pyrazines and their use as herbicides” (Syngenta Limited, priority 2008, dated 2012).

What was measured:
Type in all cases: in vivo
test plants [1] = experiment: Example B2 herbicidal action, pre-emergence, overall statement on the test plants; conditions: Example B2 protocol, rate not stated, result in words
Description: (§1) Seeds of a variety of test species were sown in standard soil in pots. After cultivation for one day (pre-emergence) or after 8 days cultivation (post-emergence) under controlled conditions in a glasshouse (at 24/16° C., day/night; 14 hours light; 65% humidity), the plants were sprayed with an aqueous spray solution derived from the formulation of the technical active ingredient in acetone/water (50:50) solution containing 0.5% Tween 20 (polyoxyethelyene sorbitan monolaurate, CAS RN 9005-64-5). The test plants were then grown in a glasshouse under controlled conditions in a glasshouse (at 24/16° C., day/night; 14 hours light; 65% humidity) and watered twice daily. After 13 days, the test was evaluated (10=total damage to plant; 0=no damage to plant).

Amaranthus retroflexus [2] = experiment: Example B2 herbicidal action, post-emergence, pots in glasshouse; conditions: evaluated after 13 days, 10=total damage to plant, 0=no damage to plant
Description: as §1

Echinochloa crus-galli = experiment: as above; conditions: evaluated after 13 days, 10=total damage to plant, 0=no damage to plant
Description: as §1

Ipomea hederaceae = experiment: as above; conditions: evaluated after 13 days, 10=total damage to plant, 0=no damage to plant
Description: as §1

Setaria faberi = experiment: as above; conditions: evaluated after 13 days, 10=total damage to plant, 0=no damage to plant
Description: as §1

Solanum nigrum [3] = experiment: as above; conditions: evaluated after 13 days, 10=total damage to plant, 0=no damage to plant
Description: as §1

Amaranthus retroflexus [4] = experiment: Example B1 herbicidal action, post-emergence, seed trays in climatic chamber; conditions: 1000 g/ha, evaluated after 9 days, 10=total damage to plant, 0=no damage to plant
Description: (§2) Seeds of a variety of test species were sown in sterilised standard soil in seed trays each having 96 cells. After cultivation for 8 to 9 days cultivation (post-emergence) under controlled conditions in a climatic chamber (cultivation at 23/17° C., day/night; 13 hours light; 50-60% humidity), the plants were treated with an aqueous spray solution of 1000 mg/l of the active ingredient dissolved in 10% DMSO (dimethyl sulfoxide, CAS RN 67-68-5) as a solvent, equivalent to 1000 g/ha. The plants were grown in the climatic chamber after application at (24/19° C., day/night; 13 hours light; 50-60% humidity) and watered twice daily. After 9 days until the test was evaluated (10=total damage to plant, 0=no damage to plant)

Nasturtium officinale = experiment: as above; conditions: 1000 g/ha, evaluated after 9 days, 10=total damage to plant, 0=no damage to plant
Description: as §2

Solanum nigrum [5] = experiment: as above; conditions: 1000 g/ha, evaluated after 9 days, 10=total damage to plant, 0=no damage to plant
Description: as §2

Stellaria media = experiment: as above; conditions: 1000 g/ha, evaluated after 9 days, 10=total damage to plant, 0=no damage to plant
Description: as §2

test plants [6] = experiment: Example B2 herbicidal action, post-emergence, overall statement on the test plants; conditions: Example B2 protocol, rate not stated, result in words
Description: as §1

SMILES | damage to the test plants (test plants [1]) | AMARE, damage to plant (Amaranthus retroflexus [4]) | NAAOF, damage to plant (Nasturtium officinale) | SOLNI, damage to plant (Solanum nigrum [5]) | STEME, damage to plant (Stellaria media) | also measured
CC(C)(C)C(=O)Oc1c(-c2c(Cl)cncc2Cl)c(=O)[nH]c2nccnc12 [Compound A8, 2,2-Dimethyl-propionic acid 7-(3,5-dichloro-pyrid-4-yl)-6-oxo-5,6-dihydro-pyrido[2,3-b]pyrazin-8-yl ester] | little or no damage |  |  |  |  | AMARE, damage to plant (Amaranthus retroflexus [2]; 1000 g/ha): 0; ECHCG, damage to plant (Echinochloa crus-galli; 1000 g/ha): 0; IPOHE, damage to plant (Ipomea hederaceae; 1000 g/ha): 1; SETFA, damage to plant (Setaria faberi; 1000 g/ha): 0; SOLNI, damage to plant (Solanum nigrum [3]; 1000 g/ha): 1
O=c1[nH]c2nccnc2c(O)c1-c1ccc(Cl)nc1Cl [Compound A13, 7-(2,6-dichloro-pyrid-3-yl)-8-hydroxy-5H-pyrido[2,3-b]pyrazin-6-one] | little or no damage |  |  |  |  | AMARE, damage to plant (Amaranthus retroflexus [2]; 1000 g/ha): 6; ECHCG, damage to plant (Echinochloa crus-galli; 1000 g/ha): 6; IPOHE, damage to plant (Ipomea hederaceae; 1000 g/ha): 6; SETFA, damage to plant (Setaria faberi; 1000 g/ha): 6; SOLNI, damage to plant (Solanum nigrum [3]; 1000 g/ha): 5
Cn1c(=O)c(-c2ccc(Cl)nc2Cl)c(OC(=O)C(C)(C)C)c2nccnc21 [Compound A15, 2,2-Dimethyl-propionic acid 7-(2,6-dichloro-pyrid-3-yl)-5-methyl-6-oxo-5,6-dihydro-pyrido[2,3-b]pyrazin-8-yl ester] | little or no damage |  |  |  |  | AMARE, damage to plant (Amaranthus retroflexus [2]; 250 g/ha): 2; ECHCG, damage to plant (Echinochloa crus-galli; 250 g/ha): 3; IPOHE, damage to plant (Ipomea hederaceae; 250 g/ha): 4; SETFA, damage to plant (Setaria faberi; 250 g/ha): 0; SOLNI, damage to plant (Solanum nigrum [3]; 250 g/ha): 4
Cc1nc(Cl)sc1-c1c(OC(=O)C(C)(C)C)c2nccnc2n(C)c1=O [Compound B3] |  | 0 | 6 | 0 | 2 | 
CCn1c(=O)c(-c2sc(Cl)nc2C)c(OC(=O)C(C)(C)C)c2nccnc21 [Compound B4] |  | 0 | 8 | 3 | 2 | 
Cc1noc(-c2c(O)c3nccnc3n(C)c2=O)n1 [Compound B5, 8-hydroxy-5-methyl-7-(3-methyl-1,2,4-oxadiazol-5-yl)-5H-pyrido[2,3-b]pyrazin-6-one] |  | 3 | 0 | 0 | 0 | 
CC(C)C(=O)Oc1c(-c2cc(C(F)(F)F)no2)c(=O)n(C)c2nccnc12 [Compound B8, isobutyric acid 5-methyl-6-oxo-7-(3-trifluoromethyl-isoxazol-5-yl)-5,6-dihydro-pyrido[2,3-b]pyrazin-8-yl ester] |  | 0 | 2 | 2 | 0 | 
O=c1[nH]c2nccnc2c(O)c1-c1sc(Cl)nc1C(F)(F)F [Compound B11] |  | 3 | 5 | 2 | 5 | 
O=c1[nH]c2nccnc2c(O)c1-c1cc(Cl)sc1Cl [Compound B12] |  | 6 | 0 | 0 | 0 | 
CC(C)C(=O)Oc1c(-c2c(C(F)(F)F)nn(C)c2OC(F)F)c(=O)[nH]c2nccnc12 [Compound B23, isobutyric acid 7-(5-difluoromethoxy-1-methyl-3-trifluoromethyl-1H-pyrazol-4-yl)-6-oxo-5,6-dihydro-pyrido[2,3-b]pyrazin-8-yl ester] | little or no damage |  |  |  |  | AMARE, damage to plant (Amaranthus retroflexus [2]; 250 g/ha): 3; ECHCG, damage to plant (Echinochloa crus-galli; 250 g/ha): 2; IPOHE, damage to plant (Ipomea hederaceae; 250 g/ha): 2; SETFA, damage to plant (Setaria faberi; 250 g/ha): 4; SOLNI, damage to plant (Solanum nigrum [3]; 250 g/ha): 1
Cn1nc(-c2c(O)c3nccnc3[nH]c2=O)c(C(F)(F)F)n1 [Compound B27] | little or no damage |  |  |  |  | AMARE, damage to plant (Amaranthus retroflexus [2]; 1000 g/ha): 0; ECHCG, damage to plant (Echinochloa crus-galli; 1000 g/ha): 1; IPOHE, damage to plant (Ipomea hederaceae; 1000 g/ha): 1; SETFA, damage to plant (Setaria faberi; 1000 g/ha): 3; SOLNI, damage to plant (Solanum nigrum [3]; 1000 g/ha): 0
Cc1cc(-c2c(OC(=O)C(C)C)c3nccnc3[nH]c2=O)n2nc(C)cc2n1 [Compound C4] |  | 0 | 0 | 2 | 0 | 
Cc1nc2cc(-c3c(OC(=O)C(C)(C)C)c4nccnc4[nH]c3=O)ccc2o1 [Compound C5] | little or no damage |  |  |  |  | damage to the test plants (test plants [6]): little or no damage
Cc1nc2cc(-c3c(OC(=O)C(C)(C)C)c4nccnc4n(CC(F)F)c3=O)ccc2o1 [Compound C6] | little or no damage |  |  |  |  | AMARE, damage to plant (Amaranthus retroflexus [2]; 1000 g/ha): 3; ECHCG, damage to plant (Echinochloa crus-galli; 1000 g/ha): 0; IPOHE, damage to plant (Ipomea hederaceae; 1000 g/ha): 0; SETFA, damage to plant (Setaria faberi; 1000 g/ha): 0; SOLNI, damage to plant (Solanum nigrum [3]; 1000 g/ha): 2
